What was measured:
Type in all cases: cell-based, Human
[1] = test system: IGROV; assay: Matrigel invasion assay, IGROV cells; conditions: blebbistatin 100 μM in top chamber, 18-24 hours, vs untreated
Experimental: (§1) Cancer cells were seeded at a cell density of 25,000-70,000 on either Matrigel coated or uncoated filters and allowed to invade for 18-24 hours towards 10% FBS in the lower chamber. Cells invading and migrating through the Matrigel layer were visualized and counted as described^9. Percent cell migration or invasion was determined as the fraction of total cells that invaded through the filter. Blebbistatin (100 μM)^10 where used, was added to the top chamber of the transwell and migration and invasion allowed to proceed. Each assay was set up in duplicate, and each experiment was conducted at least 3 times with 4 random fields from a 10× magnification analyzed for each membrane.

[2] = test system: IGROV; assay: Transwell migration assay, IGROV cells; conditions: blebbistatin 100 μM in top chamber, vs untreated
Experimental: as §1

[3] = test system: IGROV; assay: Magnetic tweezers assay (3DFM) of cell stiffness, IGROV cells; conditions: blebbistatin 100 μm added 30 mins before beads, vs untreated
Experimental: (§2) The Three Dimensional Force Microscope (3DFM)^11 was used for applying controlled and precise 60-100 pN local force (FIG. 6) on 2.8 micron magnetic beads (DYNAL Biotech, Oslo, Norway) coated with fibronectin (Sigma Aldrich, St. Louis, Mo.). Briefly, cells were plated on coverslips followed by addition of the beads. Cells and beads were incubated for 30 minutes followed by force application and resultant bead displacements were recorded and analyzed. The displacement of the beads was recorded with high-speed video camera (Pulnix, JAI, Ca) and tracked using Video Spot Tracker (http://cismm.cs.unc.edu). The mean creep compliance was calculated from the tracked displacements as described. Spring constants were derived by fitting the compliance curves to a Jeffrey's model for viscoelastic liquids (FIG. 6). […]
(§3) To further examine the relationship between cancer cell deformability and invasive potential, the effective shear modulus (here on referred to as the stiffness, k), of the cell was calculated by fitting a modified Kelvin Voigt model^12 to the compliance using a least squares fit (see FIG. 6). […] In addition, the variability in stiffness correlates directly with a specific measure of metastatic progression as determined using in vitro three-dimensional invasion assays.

[4] = test system: Ovca429TβRIII cells; assay: Matrigel invasion assay, Ovca429TβRIII cells; conditions: Ovca429TβRIII cells treated with blebbistatin, vs untreated
Experimental: as §1

[5] = test system: Ovca429TβRIII cells; assay: Magnetic tweezers assay (3DFM) of cell stiffness, Ovca429TβRIII cells; conditions: Ovca429TβRIII cells treated with blebbistatin
Experimental: as §2, §3

[6] = test system: IGROV; assay: Viability of IGROV cells under blebbistatin; conditions: concentration that disrupted cortical pMLC localization
[7] = test system: IGROV; assay: Immunofluorescence of cortical pMLC localization, IGROV cells; conditions: blebbistatin
Experimental: Immunoflourescence was performed essentially as described previously^9 and images were obtained using a Nikon inverted microscope.

Cc1ccc2c(c1)C(=O)C1(O)CCN(c3ccccc3)C1=N2 (centres unmarked) [Blebbistatin]
increase of cell invasion [1]: 2.5 fold
increase of cell migration [2]: 4 fold
decrease of cell stiffness [3]: 2 fold
increase of invasiveness [4]: four fold
stiffness K (spring constant) [5]: 1.48 Pa
decrease of stiffness ([5]; vs untreated): two fold
effect on viability [6]: did not affect viability
cortical pMLC localization [7]: disrupted cortical pMLC localization

— US20130089869A1, “Methods For and Uses of Mechanical Stiffness Profiling of Cancer Cells” (DUKE UNIVERSITY, priority 2011, published 2013)
